From ChEMBL document CHEMBL4145544, “Discovery and optimization of 1-(1H-indol-1-yl)ethanone derivatives as CBP/EP300 bromodomain inhibitors for the treatment of castration-resistant prostate cancer” (Eur J Med Chem, 2018)

What was measured:
CREB-binding protein = CREB-binding protein (Homo sapiens, UniProt Q92793); assay: Inhibition of biotinylated-H4KAc4 binding to human His6-tagged CBP (R1081 to G1197 residues) expressed in Escherichia coli BL21(DE3) after 2.5 hrs by luminescence-based AlphaScreen assay
[1] = biological target: Bromodomain-containing protein 4 (Homo sapiens, UniProt O60885); assay: Inhibition of biotinylated-H4KAc4 binding to human His6-tagged BRD4 bromodomain-1 (N44 to E168 residues) expressed in Escherichia coli BL21(DE3) at 50 uM after 2.5 hrs by luminescence-based AlphaScreen assay relative to control
[2] = biological target: Bromodomain adjacent to zinc finger domain protein 2B (Homo sapiens, UniProt Q9UIF8); assay: Inhibition of biotinylated-H4KAc4 binding to human His6-tagged BAZ2B (S1858 to S1972 residues) expressed in Escherichia coli BL21(DE3) at 50 uM after 2.5 hrs by luminescence-based AlphaScreen assay relative to control
[3] = biological target: T1, ATPase family AAA domain-containing protein 2 (Homo sapiens) (UniProt Q6PL18); assay: Inhibition of biotinylated-H4KAc4 binding to human His6-tagged ATAD2 expressed in Escherichia coli BL21(DE3) at 50 uM after 2.5 hrs by luminescence-based AlphaScreen assay relative to control
T1 sequence (whole entry): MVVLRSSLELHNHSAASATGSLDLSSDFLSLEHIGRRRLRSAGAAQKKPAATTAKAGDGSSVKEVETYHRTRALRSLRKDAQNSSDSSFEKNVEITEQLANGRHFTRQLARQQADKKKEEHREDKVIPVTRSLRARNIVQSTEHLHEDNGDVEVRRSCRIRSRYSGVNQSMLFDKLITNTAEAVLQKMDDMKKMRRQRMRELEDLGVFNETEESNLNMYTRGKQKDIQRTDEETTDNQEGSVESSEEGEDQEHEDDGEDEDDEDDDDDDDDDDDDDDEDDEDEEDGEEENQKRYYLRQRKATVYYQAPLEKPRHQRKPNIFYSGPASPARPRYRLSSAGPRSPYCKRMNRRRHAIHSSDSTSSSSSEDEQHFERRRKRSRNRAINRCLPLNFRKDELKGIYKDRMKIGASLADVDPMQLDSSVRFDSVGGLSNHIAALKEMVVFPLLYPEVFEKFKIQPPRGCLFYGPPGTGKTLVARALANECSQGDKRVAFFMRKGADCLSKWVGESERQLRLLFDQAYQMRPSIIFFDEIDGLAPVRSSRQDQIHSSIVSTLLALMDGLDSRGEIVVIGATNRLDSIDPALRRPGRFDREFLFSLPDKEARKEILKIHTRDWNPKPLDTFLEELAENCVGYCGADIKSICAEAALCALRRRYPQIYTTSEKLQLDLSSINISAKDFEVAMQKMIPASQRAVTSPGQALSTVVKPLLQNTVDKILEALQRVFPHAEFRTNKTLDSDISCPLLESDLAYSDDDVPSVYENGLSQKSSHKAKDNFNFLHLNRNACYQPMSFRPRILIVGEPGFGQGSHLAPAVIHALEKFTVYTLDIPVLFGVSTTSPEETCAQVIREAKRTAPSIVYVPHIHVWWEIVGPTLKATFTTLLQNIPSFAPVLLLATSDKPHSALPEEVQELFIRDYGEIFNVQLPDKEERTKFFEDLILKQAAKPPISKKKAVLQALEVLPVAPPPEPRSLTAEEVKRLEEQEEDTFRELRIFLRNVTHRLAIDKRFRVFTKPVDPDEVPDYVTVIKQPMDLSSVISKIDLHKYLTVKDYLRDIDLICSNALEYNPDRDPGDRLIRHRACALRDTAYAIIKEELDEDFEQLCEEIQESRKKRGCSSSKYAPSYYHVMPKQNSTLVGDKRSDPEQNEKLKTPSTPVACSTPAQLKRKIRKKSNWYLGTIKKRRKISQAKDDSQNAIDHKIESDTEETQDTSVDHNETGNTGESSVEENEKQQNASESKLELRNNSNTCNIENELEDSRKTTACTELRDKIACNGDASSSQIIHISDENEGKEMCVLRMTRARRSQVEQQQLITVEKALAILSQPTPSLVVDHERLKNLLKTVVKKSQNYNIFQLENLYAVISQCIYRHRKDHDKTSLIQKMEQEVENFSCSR

LNCaP = assay: Antiproliferative activity against human LNCAP cells after 72 hrs by Cell-Titer Glo assay; type: functional, cell-based; details: Homo sapiens, LNCaP, 72 h; read-out: IC50

CREB-binding protein, sequence (Q92793 whole entry, the tested form may be a part): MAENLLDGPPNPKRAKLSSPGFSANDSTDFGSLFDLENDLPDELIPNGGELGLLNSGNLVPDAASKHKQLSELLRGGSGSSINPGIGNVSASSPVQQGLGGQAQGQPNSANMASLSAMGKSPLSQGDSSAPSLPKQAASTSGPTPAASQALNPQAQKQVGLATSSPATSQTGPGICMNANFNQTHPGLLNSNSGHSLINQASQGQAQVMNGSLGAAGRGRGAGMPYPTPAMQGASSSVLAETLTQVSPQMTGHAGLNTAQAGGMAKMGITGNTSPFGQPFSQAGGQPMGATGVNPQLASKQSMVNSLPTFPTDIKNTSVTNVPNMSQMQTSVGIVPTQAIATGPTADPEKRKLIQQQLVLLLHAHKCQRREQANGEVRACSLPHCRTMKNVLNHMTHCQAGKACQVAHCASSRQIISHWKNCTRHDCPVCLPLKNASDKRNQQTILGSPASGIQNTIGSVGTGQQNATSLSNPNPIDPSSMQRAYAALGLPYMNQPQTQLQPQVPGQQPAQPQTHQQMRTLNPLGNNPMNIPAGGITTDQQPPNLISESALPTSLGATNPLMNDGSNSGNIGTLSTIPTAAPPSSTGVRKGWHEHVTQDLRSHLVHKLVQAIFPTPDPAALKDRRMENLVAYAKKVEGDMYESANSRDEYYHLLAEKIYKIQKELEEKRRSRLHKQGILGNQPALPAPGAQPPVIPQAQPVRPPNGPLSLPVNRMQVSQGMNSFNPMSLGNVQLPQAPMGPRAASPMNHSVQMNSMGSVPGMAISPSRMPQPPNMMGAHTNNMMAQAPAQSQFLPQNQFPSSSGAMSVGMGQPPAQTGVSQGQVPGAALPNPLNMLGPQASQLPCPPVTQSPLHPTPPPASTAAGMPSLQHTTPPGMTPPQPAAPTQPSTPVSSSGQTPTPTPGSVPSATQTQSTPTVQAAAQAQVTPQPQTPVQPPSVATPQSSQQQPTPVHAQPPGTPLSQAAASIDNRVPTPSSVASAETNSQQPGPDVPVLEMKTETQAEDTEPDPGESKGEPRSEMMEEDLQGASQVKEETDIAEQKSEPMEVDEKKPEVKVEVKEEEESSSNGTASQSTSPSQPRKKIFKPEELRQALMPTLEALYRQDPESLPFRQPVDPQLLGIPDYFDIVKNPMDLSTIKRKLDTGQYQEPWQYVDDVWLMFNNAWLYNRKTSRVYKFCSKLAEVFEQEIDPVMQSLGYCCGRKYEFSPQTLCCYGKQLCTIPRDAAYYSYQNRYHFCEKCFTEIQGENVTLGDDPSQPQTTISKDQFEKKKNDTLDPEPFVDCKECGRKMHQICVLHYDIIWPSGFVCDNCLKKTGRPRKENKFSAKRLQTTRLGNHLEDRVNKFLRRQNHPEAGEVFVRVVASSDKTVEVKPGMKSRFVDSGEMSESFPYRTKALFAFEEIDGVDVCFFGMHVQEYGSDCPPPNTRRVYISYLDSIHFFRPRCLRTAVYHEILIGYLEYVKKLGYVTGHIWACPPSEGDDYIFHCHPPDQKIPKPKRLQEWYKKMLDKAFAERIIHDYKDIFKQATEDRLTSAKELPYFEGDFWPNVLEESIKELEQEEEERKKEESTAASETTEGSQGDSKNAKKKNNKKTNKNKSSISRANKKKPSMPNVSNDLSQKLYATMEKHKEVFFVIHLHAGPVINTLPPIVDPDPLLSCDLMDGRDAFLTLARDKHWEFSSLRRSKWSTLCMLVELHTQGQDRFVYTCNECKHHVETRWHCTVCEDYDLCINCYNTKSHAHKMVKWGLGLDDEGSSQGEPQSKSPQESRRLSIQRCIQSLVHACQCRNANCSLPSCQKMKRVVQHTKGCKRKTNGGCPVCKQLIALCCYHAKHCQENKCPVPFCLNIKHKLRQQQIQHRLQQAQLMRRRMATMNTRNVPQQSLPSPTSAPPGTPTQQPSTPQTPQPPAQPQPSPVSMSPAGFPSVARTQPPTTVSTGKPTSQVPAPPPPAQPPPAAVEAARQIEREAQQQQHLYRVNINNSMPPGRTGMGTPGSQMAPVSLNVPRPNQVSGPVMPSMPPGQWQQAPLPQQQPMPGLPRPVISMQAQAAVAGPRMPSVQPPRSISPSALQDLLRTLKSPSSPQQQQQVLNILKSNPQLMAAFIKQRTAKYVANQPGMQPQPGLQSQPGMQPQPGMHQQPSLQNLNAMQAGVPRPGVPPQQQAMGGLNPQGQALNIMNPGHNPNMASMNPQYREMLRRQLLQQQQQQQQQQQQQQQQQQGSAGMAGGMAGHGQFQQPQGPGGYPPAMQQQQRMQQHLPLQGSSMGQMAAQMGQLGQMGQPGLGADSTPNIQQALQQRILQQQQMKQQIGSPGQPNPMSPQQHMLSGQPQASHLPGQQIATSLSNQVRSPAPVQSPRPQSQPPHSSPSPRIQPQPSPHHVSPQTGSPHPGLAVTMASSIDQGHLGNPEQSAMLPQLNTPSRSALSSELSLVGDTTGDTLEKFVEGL
Bromodomain adjacent to zinc finger domain protein 2B, sequence (Q9UIF8 whole entry, the tested form may be a part): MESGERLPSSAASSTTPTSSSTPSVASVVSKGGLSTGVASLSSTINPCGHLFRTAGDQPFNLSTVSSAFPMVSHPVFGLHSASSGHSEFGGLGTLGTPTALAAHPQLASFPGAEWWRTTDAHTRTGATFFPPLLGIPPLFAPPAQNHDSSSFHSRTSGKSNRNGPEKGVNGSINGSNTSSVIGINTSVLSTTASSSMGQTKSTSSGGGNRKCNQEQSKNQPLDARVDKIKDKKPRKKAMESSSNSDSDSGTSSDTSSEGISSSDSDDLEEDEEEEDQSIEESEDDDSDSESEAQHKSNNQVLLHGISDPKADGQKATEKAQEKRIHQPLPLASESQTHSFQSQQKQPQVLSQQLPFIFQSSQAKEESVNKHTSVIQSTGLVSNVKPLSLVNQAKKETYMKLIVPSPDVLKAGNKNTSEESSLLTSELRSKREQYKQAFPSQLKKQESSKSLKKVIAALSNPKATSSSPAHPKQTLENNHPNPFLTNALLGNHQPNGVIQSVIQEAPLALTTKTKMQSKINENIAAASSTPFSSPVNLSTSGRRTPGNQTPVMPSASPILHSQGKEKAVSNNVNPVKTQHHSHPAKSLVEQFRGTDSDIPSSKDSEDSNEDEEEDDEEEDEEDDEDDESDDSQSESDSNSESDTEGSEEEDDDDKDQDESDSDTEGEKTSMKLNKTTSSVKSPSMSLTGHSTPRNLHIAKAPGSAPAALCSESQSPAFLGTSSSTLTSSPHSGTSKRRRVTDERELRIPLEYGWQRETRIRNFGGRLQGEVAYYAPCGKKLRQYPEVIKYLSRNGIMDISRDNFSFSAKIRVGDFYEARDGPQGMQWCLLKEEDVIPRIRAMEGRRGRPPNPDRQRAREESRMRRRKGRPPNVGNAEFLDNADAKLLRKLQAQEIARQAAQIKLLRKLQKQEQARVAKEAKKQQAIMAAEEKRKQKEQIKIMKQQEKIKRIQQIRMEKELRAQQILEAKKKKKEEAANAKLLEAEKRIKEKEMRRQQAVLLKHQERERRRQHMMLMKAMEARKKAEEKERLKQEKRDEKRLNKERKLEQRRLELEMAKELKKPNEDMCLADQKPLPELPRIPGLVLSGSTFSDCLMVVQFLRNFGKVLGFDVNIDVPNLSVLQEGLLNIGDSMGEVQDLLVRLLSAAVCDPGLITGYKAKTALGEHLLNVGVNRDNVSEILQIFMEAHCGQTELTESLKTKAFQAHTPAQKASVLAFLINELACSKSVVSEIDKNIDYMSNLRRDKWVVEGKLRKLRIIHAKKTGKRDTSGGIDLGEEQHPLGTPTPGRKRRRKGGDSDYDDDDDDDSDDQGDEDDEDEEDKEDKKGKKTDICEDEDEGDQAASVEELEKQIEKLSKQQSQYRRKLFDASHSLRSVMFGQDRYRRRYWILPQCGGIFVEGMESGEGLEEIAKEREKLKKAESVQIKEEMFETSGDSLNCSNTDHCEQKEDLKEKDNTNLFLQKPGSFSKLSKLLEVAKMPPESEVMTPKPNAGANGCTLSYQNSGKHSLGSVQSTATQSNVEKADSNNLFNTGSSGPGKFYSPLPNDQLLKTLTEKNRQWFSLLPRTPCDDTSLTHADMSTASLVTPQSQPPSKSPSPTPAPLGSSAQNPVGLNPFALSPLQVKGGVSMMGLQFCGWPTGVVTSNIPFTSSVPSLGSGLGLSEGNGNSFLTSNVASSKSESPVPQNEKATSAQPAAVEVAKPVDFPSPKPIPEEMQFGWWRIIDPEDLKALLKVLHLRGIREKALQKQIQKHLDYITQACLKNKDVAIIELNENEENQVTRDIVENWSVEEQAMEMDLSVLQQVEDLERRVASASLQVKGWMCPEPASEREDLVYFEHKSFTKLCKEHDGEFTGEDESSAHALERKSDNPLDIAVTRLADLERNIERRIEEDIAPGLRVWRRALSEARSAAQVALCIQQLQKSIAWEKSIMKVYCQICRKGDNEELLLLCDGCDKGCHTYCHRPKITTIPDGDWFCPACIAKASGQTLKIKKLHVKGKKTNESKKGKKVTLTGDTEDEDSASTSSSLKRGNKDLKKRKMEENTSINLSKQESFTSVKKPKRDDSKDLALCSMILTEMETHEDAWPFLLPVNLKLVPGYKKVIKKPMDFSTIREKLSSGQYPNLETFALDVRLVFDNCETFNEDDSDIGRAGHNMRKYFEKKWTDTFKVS

IC50 (CREB-binding protein)	SMILES	further results
> 50 µM	CCCCNc1ccc(C(=O)O)cc1NC(=O)c1cn(C(C)=O)c2ccccc12	–
2.81 µM	CC(=O)n1cc(C(=O)Nc2cc(C(=O)O)cc(-c3cc4ccccc4o3)c2)c2ccccc21	–
1.44 µM	CC(=O)n1cc(C(=O)Nc2cc(C(=O)O)cc(-c3cccc(Cl)c3)c2)c2ccccc21	–
6.56 µM	CCCNc1ccc(C(=O)O)cc1NC(=O)c1cn(C(C)=O)c2ccccc12	–
25.4 µM	CC(=O)c1cccc(NC(=O)c2cn(C(C)=O)c3ccccc23)c1	–
4.7 µM	CC(=O)n1cc(C(=O)Nc2cc(Br)cc(C(=O)O)c2)c2ccccc21	–
> 50 µM	O=C1N=CC(c2cccc([N+](=O)[O-])c2)c2ccccc21 (configuration not stated)	inhibition [1]: 23%; inhibition [2]: 59%; inhibition [3]: 87%
> 50 µM	CC(=O)n1c(C#N)nc2ccccc21	inhibition [1]: 20%; inhibition [2]: 24%; inhibition [3]: 29%
2.8 µM	CCc1cc(NC(=O)c2cn(C(C)=O)c3ccccc23)cc(C(=O)O)c1	–
1.89 µM	CC(=O)n1cc(C(=O)Nc2cc(C(=O)O)ccc2NC2CCCC2)c2ccccc21	–
1.96 µM	CC(=O)n1cc(C(=O)Nc2cc(CCc3ccccc3)cc(C(=O)O)c2)c2ccccc21	–
32.6 µM	CC(=O)n1cc(C(=O)NCCN2CCNC2=O)c2ccccc21	–
1 µM	CC(=O)n1cc(C(=O)Nc2cc(C(=O)O)cc(-c3ccc4c(cnn4C)c3)c2)c2ccccc21	–
16.7 µM	CC(=O)c1cn(CCC(=O)O)c2ccccc12	inhibition [1]: 34%; inhibition [2]: 21%; inhibition [3]: 39%
> 50 µM	CC(=O)c1nn(-c2ccccc2)cc1C(=O)c1ccccc1	inhibition [1]: 27%; inhibition [2]: 21%; inhibition [3]: 35%
2.74 µM	CC(=O)n1cc(C(=O)Nc2cc(C(=O)O)cc(C3CC3)c2)c2ccccc21	–
13.6 µM	CC(=O)c1cn(CC(=O)N2CCC(C(=O)O)CC2)c2ccccc12	–
8.5 µM	CC(=O)n1cc(C(=O)Nc2cc(C(=O)O)ccc2NC2CCOCC2)c2ccccc21	–
41.4 µM	CC(=O)c1coc2c1cc(O)c1ccccc12	inhibition [1]: 51%; inhibition [2]: 36%; inhibition [3]: 55%
39.6 µM	CCOC(=O)CCn1cc(C(C)=O)c2ccccc21	–
1.69 µM	CC(=O)n1cc(C(=O)Nc2cc(C(=O)O)cc(-c3cncc(C)c3)c2)c2ccccc21	–
2.48 µM	CC(=O)n1cc(C(=O)Nc2cc(C(=O)O)cc(C3CCCCC3)c2)c2ccccc21	–
> 50 µM	CC(=O)c1nn(-c2ccccc2)c2c1CCCC2	inhibition [1]: -2%; inhibition [3]: 6%
9.11 µM	CC(=O)n1ncc2c([N+](=O)[O-])cc([N+](=O)[O-])cc21	inhibition [1]: 98%; inhibition [2]: 97%; inhibition [3]: 98%
> 50 µM	Nc1c(N2CCCC2)c2ccccc2oc1=O	inhibition [1]: 47%; inhibition [2]: 69%; inhibition [3]: 52%
0.69 µM	COc1ccc2c(c1)c(C(=O)Nc1cc(C(=O)O)cc(-c3ccc4c(c3)OCCO4)c1)cn2C(C)=O	–
3.89 µM	CCOc1ccc2c(c1)c(C(=O)Nc1cc(C(=O)O)cc(-c3ccco3)c1)cn2C(C)=O	–

IC50 (CREB-binding protein)	SMILES	further results
21.6 µM	CC(=O)n1cc(C(=O)Nc2cc(C(=O)O)ccc2NCC2CC2)c2ccccc21	–
1.67 µM	CC(=O)n1cc(C(=O)Nc2cc(C(=O)O)ccc2NC2CCCCCC2)c2ccccc21	–
> 50 µM	CC(=O)Nc1ccc2c(c1)c1ccccc1n2C(C)=O	inhibition [1]: -3%; inhibition [2]: 10%; inhibition [3]: 4%
2.33 µM	CC(=O)n1cc(C(=O)Nc2cc(C(=O)O)ccc2NCC2CCCCC2)c2ccccc21	–
> 50 µM	Nc1c(Nc2ccccc2)c2ccccc2oc1=O	inhibition [1]: 8%; inhibition [2]: 32%; inhibition [3]: 32%
0.29 µM	COc1ccc2c(c1)c(C(=O)Nc1cc(C(=O)O)cc(-c3ccc4c(cnn4C)c3)c1)cn2C(C)=O	–
3.39 µM	CC(=O)n1cc(C(=O)Nc2cc(CC(C)C)cc(C(=O)O)c2)c2ccccc21	–
4.84 µM	CC(=O)n1cc(C(=O)Nc2cc(C(=O)O)ccc2NC2CC2)c2ccccc21	–
19.8 µM	COC(=O)C1CCN(C(=O)Cn2cc(C(C)=O)c3ccccc32)CC1	–
0.17 µM	CC(=O)n1cc(C(=O)Nc2cc(C(=O)O)cc(-c3ccco3)c2)c2cc(O)ccc21	–
33.8 µM	CC(=O)NCCNC(=O)c1cn(C(C)=O)c2ccccc12	–
2.33 µM	CC(=O)n1cc(C(=O)Nc2cc(C(=O)O)ccc2NCC(C)C)c2ccccc21	–
3.52 µM	CC(=O)n1cc(C(=O)Nc2cc(C(=O)O)cc(-c3cccc(F)c3)c2)c2ccccc21	–
4.11 µM	CC(=O)n1cc(C(=O)Nc2cc(C(=O)O)ccc2NCc2ccccc2)c2ccccc21	–
3.39 µM	COC(=O)c1cccc(NC(=O)c2cn(C(C)=O)c3ccccc23)c1	–
7.09 µM	COC(=O)[C@H]1CCCN(C(=O)Cn2cc(C(C)=O)c3ccccc32)C1	–
> 50 µM	CC(=O)OCc1cn(C(C)=O)c2ccccc12	inhibition [1]: 17%; inhibition [2]: 10%; inhibition [3]: 32%
> 50 µM	CC(=O)c1nn(-c2ccccc2)c(C)c1C(C)=O	inhibition [1]: 5%; inhibition [2]: 6%; inhibition [3]: 19%
1.86 µM	CC(=O)n1cc(C(=O)Nc2cc(C(=O)O)cc(-c3ccccc3)c2)c2ccccc21	–
–	CNC(=O)c1ccc(N2C(=S)N(c3ccc(C#N)c(C(F)(F)F)c3)C(=O)C2(C)C)cc1F [ENZALUTAMIDE]	IC50 (LNCaP): 33.8 µM
6.36 µM	CC(=O)n1cc(C(=O)Nc2cc(C(=O)O)ccc2NCC2CCOCC2)c2ccccc21	–
26.2 µM	CCCOc1ccc2c(c1)c(C(=O)Nc1cc(C(=O)O)cc(-c3ccco3)c1)cn2C(C)=O	–
6.8 µM	CC(=O)c1cn(CC(=O)N2CCC[C@H](C(=O)O)C2)c2ccccc12	–
> 50 µM	Cn1nc(-c2ccc(Cl)cc2)c2ccccc2c1=O	inhibition [1]: 57%; inhibition [2]: 34%; inhibition [3]: 49%
2.07 µM	COc1cccc(-c2cc(NC(=O)c3cn(C(C)=O)c4ccccc34)cc(C(=O)O)c2)c1	–
4.05 µM	CC(=O)n1cc(C(=O)Nc2cc(C(=O)O)cc(-c3cccc(C(F)(F)F)c3)c2)c2ccccc21	–
2.99 µM	CC(=O)n1cc(C(=O)Nc2cc(C(=O)O)cc(C3CCCC3)c2)c2ccccc21	–
